Measurements published in patent US10294202B2, “Pyrrolidinones as herbicides” (FMC Corporation, priority 2013, dated 2019).

Columns and labels:
Assay in all cases: Test D pre-/postemergence herbicide test
windgrass = format: in vivo, Apera spica-venti; conditions: Preemergence, scale 0 to 100 (0 no effect, 100 complete control)
Excerpt: (§1) Seeds of plant species selected from bluegrass (annual bluegrass, Poa annua), blackgrass (Alopecurus myosuroides), canarygrass (littleseed canarygrass, Phalaris minor), chickweed (common chickweed, Stellaria media), galium (catchweed bedstraw, Galium aparine), bromegrass, downy (downy bromegrass, Bromus tectorum), field poppy (Papaver rhoeas), field violet (Viola arvensis), foxtail, green (green foxtail, Setaria viridis), deadnettle (henbit deadnettle, Lamium amplexicaule), ryegrass, Italian (Italian ryegrass, Lolium multiflorum), kochia (Kochia scoparia), lambsquarters (Chenopodium album), oilseed rape (Brassica napus), pigweed (Amaranthus retroflexus), chamomile (scentless chamomile, Matricaria inodora), Russian thistle (Salsola kali), speedwell (bird's-eye speedwell, Veronica persica), barley, spring (spring barley, Hordeum vulgare), wheat, spring (spring wheat, Triticum aestivum), buckwheat, wild (wild buckwheat, Polygonum convolvulus), mustard, wild (wild mustard, Sinapis arvensis), oat, wild (wild oat, Avena fatua), radish, wild (wild radish, Raphanus raphanistrum), […]), barley, winter (winter barley, Hordeum vulgare), and wheat, winter (winter wheat, Triticum aestivum) were planted into a silt loam soil and treated preemergence with test chemicals formulated in a non-phytotoxic solvent mixture which included a surfactant. At the same time, these species were planted in pots containing Redi-Earth® planting medium (Scotts Company, 14111 Scottslawn Road, Marysville, Ohio 43041) comprising spaghnum peat moss, vermiculite, wetting agent and starter nutrients and treated with postemergence applications of the test chemicals formulated in the same manner. Plants ranged in height from 2 to 18 cm (1- to 4-leaf stage). Treated plants and controls were maintained in a controlled growth environment for 7 to 21 days after which time all species were compared to controls and visually evaluated. Plant response ratings, summarized in Table D, are based on a scale of 0 to 100 where 0 is no effect and 100 is complete control. A dash (-) response means no test result.

ryegrass, Italian = format: in vivo, Lolium multiflorum; conditions: Preemergence, scale 0 to 100 (0 no effect, 100 complete control)
Excerpt: as §1

barley, spring = format: in vivo, Hordeum vulgare; conditions: Preemergence; for Plant response rating, Barley, Spring: scale 0 to 100 (0 no effect, 100 complete control); for Plant response rating: 250 g ai/ha, Barley, Spring, scale 0 to 100
Excerpt: as §1

barley, winter = format: in vivo, Hordeum vulgare; conditions: Preemergence; for Plant response rating, Barley, Winter: scale 0 to 100 (0 no effect, 100 complete control); for Plant response rating: 250 g ai/ha, Barley, Winter, scale 0 to 100
Excerpt: as §1

speedwell = format: in vivo, Veronica persica; conditions: Preemergence, scale 0 to 100 (0 no effect, 100 complete control)
Excerpt: as §1

pigweed = format: in vivo, Amaranthus retroflexus; conditions: Preemergence, scale 0 to 100 (0 no effect, 100 complete control)
Excerpt: as §1

canarygrass = format: in vivo, Phalaris minor; conditions: Preemergence; for Plant response rating, Canarygrass: scale 0 to 100 (0 no effect, 100 complete control); for Plant response rating: 250 g ai/ha, Canarygrass, scale 0 to 100
Excerpt: as §1

Row | SMILES | Plant response rating, Windgrass (windgrass; 31 g ai/ha) | Plant response rating, Windgrass (windgrass; 62 g ai/ha) | Plant response rating, Windgrass (windgrass; 125 g ai/ha) | Plant response rating, Windgrass (windgrass; 250 g ai/ha) | Plant response rating, Ryegrass, Italian (ryegrass, Italian; 31 g ai/ha) | Plant response rating, Ryegrass, Italian (ryegrass, Italian; 62 g ai/ha) | Plant response rating, Ryegrass, Italian (ryegrass, Italian; 125 g ai/ha) | Plant response rating, Ryegrass, Italian (ryegrass, Italian; 250 g ai/ha) | Plant response rating, Barley, Spring (barley, spring; 31 g ai/ha) | Plant response rating, Barley, Spring (barley, spring; 62 g ai/ha) | Plant response rating, Barley, Spring (barley, spring; 125 g ai/ha) | Plant response rating (barley, spring) | Plant response rating, Barley, Winter (barley, winter; 31 g ai/ha) | Plant response rating, Barley, Winter (barley, winter; 62 g ai/ha) | Plant response rating, Barley, Winter (barley, winter; 125 g ai/ha) | Plant response rating (barley, winter) | Plant response rating, Speedwell (speedwell; 31 g ai/ha) | Plant response rating, Speedwell (speedwell; 62 g ai/ha) | Plant response rating, Speedwell (speedwell; 125 g ai/ha) | Plant response rating, Speedwell (speedwell; 250 g ai/ha) | also measured
1 | O=C1NCC(c2cccc(C(F)(F)F)c2)C1C(=O)Nc1ccc(F)cc1F (racemic) [Compound 207] | 5 | 20 | 20 | 65 | 0 | 5 | 5 | 15 | 0 | 5 | 20 | 25 | 5 | 10 | 25 | 45 | 20 | 20 | 25 | 30 | Plant response rating, Pigweed (pigweed; 31 g ai/ha): 0; Plant response rating, Pigweed (pigweed; 62 g ai/ha): 0; Plant response rating, Pigweed (pigweed; 125 g ai/ha): 0; Plant response rating, Pigweed (pigweed; 250 g ai/ha): 5; Plant response rating, Canarygrass (canarygrass; 31 g ai/ha): 0; Plant response rating, Canarygrass (canarygrass; 62 g ai/ha): 5; Plant response rating, Canarygrass (canarygrass; 125 g ai/ha): 0; Plant response rating (canarygrass): 75
2 | O=C1NCC(c2cccc(C(F)(F)F)c2)C1C(=O)Nc1cccc(F)c1F (centres unmarked) [Compound 241] | 65 | 90 | 95 | 98 | 15 | 20 | 20 | 50 | 0 | 10 | 20 | 35 | 10 | 10 | 30 | 65 | 10 | 35 | 70 | 85 | Plant response rating, Pigweed (pigweed; 31 g ai/ha): 15; Plant response rating, Pigweed (pigweed; 62 g ai/ha): 15; Plant response rating, Pigweed (pigweed; 125 g ai/ha): 85; Plant response rating, Pigweed (pigweed; 250 g ai/ha): 80; Plant response rating, Canarygrass (canarygrass; 31 g ai/ha): 20; Plant response rating, Canarygrass (canarygrass; 62 g ai/ha): 45; Plant response rating, Canarygrass (canarygrass; 125 g ai/ha): 65; Plant response rating (canarygrass): 75
